Measurements: patent US4389412A, “Substituted cyclopropanecarboxylic acid esters and pesticidal compositions containing the same as active ingredient” (priority 1979, dated 1983)
≈ marks a conversion by molar mass, not a printed value. Entries after “also recorded” stand apart in the source; their conditions may differ.

Key:
pests = assay: Pesticidal effectiveness, overall; details: in vivo
Text: The pesticidal activity of the compounds according to this invention against green rice leafhoppers (Nephotettix cincticeps Uhler), rice stem borers (Chilo suppressalis Walker), tobacco cutworms (Prodenia litura […]) and houseflies (Musca domestica), as examples of the pests against which the same compounds are considered effective, the acute toxicity data on the same compounds as determined in rat by the oral route and the median tolerance limit (TLm) data on the same compounds as determined in killifish (Orizias latipes) and guppies (Lebistes reticulatus) are shown in Table 1 alongside the corresponding values for various control compounds. The pesticidal effects were determined by the procedures set forth in Test Examples 1 through 4, while the acute toxicity to rat was determined by the procedure set forth in Test Example 9 and the toxicity to fish was determined by the procedures set forth in Test Examples 6 and 7, all those Examples appearing hereinafter.

carp (Cyprinus carpio L) = assay: Fish toxicity test with carp; type: in vivo; details: 48 hrs., 21±1° C.; 2880 min
Outline: (§1)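 Compound in acetone with Tween-20 dispersed in 50 L aerated water at a set concentration; five carp (about 6 g, 6 cm) exposed at 21±1° C. Deaths checked after 48 h, and TLm (median tolerance limit, ppm) determined.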

[1] = test system: brown planthoppers (Nilaparvata lugens Stal); assay: Utility Example-1: LC50 on adult brown planthoppers on dipped rice plants; type: in vivo; details: 25° C.; for Pesticidal activity LC50: 24 hours, 1440 min
Outline: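 Rice plants 4 weeks from sowing were dipped in water-diluted 1% emulsifiable concentrate at set concentrations and air-dried. Thirty adult N. lugens were caged on each pot, held at 25 °C.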

fish = assay: Fish toxicity safety factor (TLm divided by maximum concentration in cover water); set-up: species or system carp; details: TLm / maximum concentration in cover water at LC50 application (100 l per 10 ares, 5 cm depth)
Outline: (§2)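 Calculated index: carp TLm (ppm) divided by the maximum compound concentration expected in paddy cover water. That concentration assumes 100 l of solution at the pest LC50 applied per 10 ares onto 5 cm deep cover water, all of it entering the water.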

carp and water flea = assay: Fish toxicity ranking according to Japanese regulations; set-up: species or system Cyprinus carpio L; Daphnia pulex; details: from TLm for carp and water flea
Outline: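 Ranking per Japanese agrochemical regulations from median tolerance limits: A = carp TLm (48 hrs.) >10 ppm and water flea TLm (3 hrs.) >0.5 ppm; B = carp 10-0.5 ppm, or carp >10 ppm with water flea <0.5 ppm; C = carp TLm (48 hrs.) <0.5 ppm.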

[2] = test system: green rice leafhoppers (Nephotettix cincticeps Uhler); assay: Mortality test with green rice leafhoppers by topical application method
Description: Mortality test with green rice leafhoppers (Nephotettix cincticeps Uhler) by topical application method
Then, the insects were kept at 25° C. with access to rice plant seedlings. The insects were used in groups of 15 individuals each.

[3] = test system: water-fleas (Daphnia pulex); assay: Toxicity test with water-fleas; type: in vivo; details: 25±1° C.
Description: Toxicity test with water-fleas (Daphnia pulex)
An acetone solution of one of the test compounds as mentioned in Table 10 and Tween-20 (the same surfactant as mentioned hereinbefore) was prepared. To 100 ml of water in a high-walled dish (9 cm in diameter, 7 cm deep) was added the above acetone solution. The mixture was stirred thoroughly to prepare an aqueous solution containing the test compound in a predetermined concentration. This was used as a test water. Twenty water-fleas (Daphnia pulex) were released into each test water which was maintained at 25±1° C. After 6 hours, the water-fleas were examined for deaths. The TLm (median tolerance limit, ppm) was determined.

[4] = test system: tobacco cutworms (Prodenia litura Fabricius); assay: Mortality test with tobacco cutworms by topical application method; type: in vivo; details: 24 h, read-out: Pesticidal effect, tobacco cutworm
Description: Mortality test with tobacco cutworms (Prodenia litura Fabricius) by topical application method
Using a microsyringe, 0.5 μl of the above solution was dripped onto the thoracic adbominal region of each of 3-instar tobacco cutworm (Prodenia litura Fabricius) larvae. […] The test larvae were used in groups of 20 individuals each.

[5] = test system: houseflies (Musca domestica); assay: Mortality test with houseflies by topical application method; details: 24 h
crop plants = assay: Phytotoxicity test; type: in vivo; details: 2,000 ppm solution on leaves, after 10 days
Text: A 2,000 ppm solution of each of the cis- and trans-isomers and a 50:50 mixture of cis- and trans-isomers of Compound (1) and of Compound (2), and a 50:50 mixture of the cis- and trans-isomers of Compound (B) and Compound (E) was applied to the leaves of the following crop plants.
After 10 days, the crop plants were examined for their phytotoxicities.

[6] = Acute toxicity test in rat by the oral route; type: in vivo; details: in vivo, male rat, in olive oil, after 7 days
Text: Acute toxicity test in rat by the oral route

[7] = Fish toxicity test with carp; type: in vivo, Cyprinus carpio L; details: carp, water, 48 hrs., 21±1° C.; read-out: TLm, Carp (48 hrs.)
Outline: as §1

[8] = test system: rice stem borers (Chilo suppressalis Walker); assay: Mortality test with rice stem borers by topical application method; type: in vivo; details: 24 h
Description: Mortality test with rice stem borers (Chilo suppressalis Walker) by topical application method
Using a microsyringe, 0.5 μl of the above solution was applied to the thoracic abdominal region of each final-instar larva of rice stem borer (Chilo suppressalis Walker). […] The test larvae were used in groups of 20 individuals each.

[9] = Fish toxicity safety factor (TLm divided by maximum concentration in cover water); set-up: species or system carp; details: in vivo, TLm / maximum concentration in cover water at LC50 application (100 l per 10 ares, 5 cm depth)
Outline: as §2

[10] = test system: guppies (Lebistes reticulatus); assay: Fish toxicity test with guppies; type: in vivo; details: Table 1; 48 hrs.
Outline: (§3)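 Ten female guppies, 3–4 months old, held at 20 °C in water containing surfactant and test compound added in acetone solution. TLm (median tolerance limit, ppm) determined.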

[11] = Fish toxicity test with guppies; type: in vivo, Lebistes reticulatus; details: guppy, water, guppies, 20° C., read-out: TLm (48 hrs.)
Outline: as §3

[12] = Nephotettix cincticeps, in Oryza sativa, 24 h

## C#CC(OC(=O)C1C(C=C(Cl)Cl)C1(C)C)c1cccc(Oc2ccc(Cl)cc2)c1 (stereo not drawn) [Compound (2), 3-(4-chlorophenoxy)-α-ethynylbenzyl 2,2-dimethyl-3-(2,2-dichlorovinyl)cyclopropanecarboxylate]
pests
  pesticidal effectiveness in words: excellent pesticidal activity against both the sensitive and resistant strains of pests; also recorded: at least equivalent or superior in pesticidal effectiveness to control compounds (A), (B), (C), (D), (E), (F), (G) and (H)

## CC1(C)C(C=C(Cl)Cl)C1C(=O)OCc1cccc(Oc2ccc(Cl)cc2)c1 (centres unmarked) [Compound (1), 3-(4-chlorophenoxy)benzyl 2,2-dimethyl-3-(2,2-dichlorovinyl)cyclopropanecarboxylate]
pests
  pesticidal effectiveness in words: excellent pesticidal activity against both the sensitive and resistant strains of pests; also recorded: at least equivalent or superior in pesticidal effectiveness to control compounds (A), (B), (C), (D), (E), (F), (G) and (H)

## C#CC(OC(=O)C1C(C=C(Cl)Cl)C1(C)C)c1cccc(Oc2ccc(Cl)cc2)c1 (stereo not drawn) [Compound (2) cis-/trans- = 30:70]
Carp (Cyprinus carpio L)
  TLm, Carp (48 hrs.): 4.9 ppm
[1]
  Pesticidal activity LC50: 180 ppm
fish
  Fish toxicity safety factor: 13.6
Carp and water flea
  Ranking: B (TLm (48 hrs.) value 10-0.5 ppm for carp; or TLm (48 hrs.) value >10 ppm for carp and TLm (3 hrs.) value <0.5 ppm for water flea, wherein appreciable toxicity to fishes is not observed by usual application but may be observed when applied to wide area at one time.)
[2]; green rice leafhoppers, 1440 min
  LD50 (median lethal dose): 0.40 µg/g
[3]
  TLm, Water-flea (6 hrs.): > 40 ppm

## CC(C)C(C(=O)OC(C#N)c1cccc(Oc2ccccc2)c1)c1ccc(Cl)cc1 (centres unmarked) [Compound (E), Fenvalerate]
[4]
  mortality at 0.0001 mg: 100%
[5]
  mortality at 0.5 µg/female: 100%
  mortality at 1 µg/female: 100%
[5]; read-out: Pesticidal effect, housefly
  mortality at 0.001 mg: 100%
Crop plants
  phytotoxicity: caused chlorosis to each one of the crop plants and did large damage to the same
[6]
  LD50 at 168 h: 440 mg/kg
[7]
  LC50 at 48 h: 0.0032 µg/mL (≈ 0.00762 µM)
[1]; Nilaparvata lugens, 24 h, read-out: Pesticidal activity LC50
  LC50: 1550 µg/mL (≈ 3690 µM)
[8]
  mortality at 1 µg/larva: 100%
  mortality at 10 µg/larva: 100%
[8]; read-out: Pesticidal effect, rice stem borer
  mortality at 0.001 mg: 100%
[9]
  selectivity ratio: 0.001
Carp and water flea
  Ranking: C (TLm (48 hrs.) value <0.5 ppm for carp, wherein toxicity to fishes is so strongly observed by usual application that both the application method and application area are strictly restricted.)
[10]
  Toxicity to fish TLm, guppy: < 0.5 ppm
[11]
  LC50 at 48 h: < 0.5 µg/mL
[2]; [12]
  mortality at 0.01 µg/female: 100%
  mortality at 0.1 µg/female: 100%
  mortality at 1 µg/female: 100%
[2]; Nephotettix cincticeps, in Oryza sativa, 24 h, read-out: Pesticidal effect, green rice leafhopper
  mortality at 10 ng: 100%

## C#CC(OC(=O)C1C(C=C(Cl)Cl)C1(C)C)c1cccc(Oc2ccc(Cl)cc2)c1 (stereo not drawn) [Compound (2) cis-/trans- = 10:90]
Carp (Cyprinus carpio L)
  TLm, Carp (48 hrs.): 7.2 ppm
[1]
  Pesticidal activity LC50: 180 ppm
fish
  Fish toxicity safety factor: 20
Carp and water flea
  Ranking: B (TLm (48 hrs.) value 10-0.5 ppm for carp; or TLm (48 hrs.) value >10 ppm for carp and TLm (3 hrs.) value <0.5 ppm for water flea, wherein appreciable toxicity to fishes is not observed by usual application but may be observed when applied to wide area at one time.)
[3]
  TLm, Water-flea (6 hrs.): > 40 ppm
